Laboratory results: patent US11913030B2, “Method of preparing mimicking angiogenic co-spheroids and application thereof” (NATIONAL TAIWAN UNIVERSITY, priority 2018, dated 2024)

Experiments:
[1] = system: NSC/EC co-spheroids; assay: Morphology and relative size of co-spheroids encapsulated in hydrogels; type: cell-based; details: FGF2 1 μg/mL
Description: To observe the morphological alteration of NSC/EC co-spheroids embedded in the hydrogels, the cells were labeled with fluorescent dyes before seeding on CS-HA substrates. After gelation, the culture medium was added and changed every 2 days. The morphologies of cell spheroids formed on CS/CS-HA substrates and encapsulated in the various hydrogels were observed by a fluorescence microscope (Leica, DMIRB), and the relative sizes of cell spheroids were determined by ImageJ software (National Institutes of Health, USA).
To support the long-term growth of NSC/EC co-spheroids, the co-spheroids derived from the CS-HA substrates were respectively embedded in the CS-based and gelatin-based hydrogels. […] On the other hand, the cell growth rates in the spheroids were evaluated by the spheroid size. Cells in EC mono-spheroids grew faster than those in NSC mono-spheroids, and the growth rate in NSC/EC co-spheroids was the slowest in both hydrogels, though the difference among each group was not statistically significant.
In some embodiments, the fibroblast growth factor 2 (FGF2) protein was used to promote the growth of co-spheroids in hydrogels. In order to evenly add FGF2 to hydrogels, FGF2 (PeproTech, USA) was added to the hydrogel solution and mixed before the gelation. The final concentration of the FGF2 protein in hydrogels was 1 μg/mL. […]

[2] = system: ECs in NSC/EC co-spheroids; assay: qRT-PCR of EC activity and angiogenic markers in co-spheroids encapsulated in gelatin-based hydrogel; type: cell-based; details: FGF2 1 μg/mL in gelatin-based hydrogel, 3 days
Description: Total RNA from the adherent cells or cell spheroids formed on CS-HA substrates and embedded in the hydrogels was extracted by Trizol reagent (Invitrogen) as the manufacturer's instructions. One microgram of total RNA was further subjected to the cDNA synthesis. cDNA pool was generated by RevertAid First Strand cDNA Synthesis Kit (MBI Fermentas, Canada) using the standard protocol. qRT-PCR was performed by StepOnePlus thermos cycler (Applied Biosystems) using the DyNAmo Flash SYBR Green qPCR Kit (Finnzymes Oy, Finland). […]
To investigate whether EC activity in NSC/EC co-spheroids was promoted after encapsulation in gelatin-based hydrogel, the co-spheroids that were cultured on CS-HA substrates for 2 days were collected, and then encapsulated by gelatin-based hydrogel. After encapsulation for 3 days, the expression of several markers representative of mitogenic and angiogenic activities of ECs was determined.
On the other hand, a relative long-term culture of co-spheroids in the gelatin-based hydrogel containing FGF2 for 12 days was also performed, and the activity of ECs was analyzed by gene expression.
To further verify the angiogenic potential of ECs in the co-spheroids, more angiogenic markers for ECs including angiopoietin-1, angiopoietin-2, and tyrosine kinase 1 (Flt-1) were analyzed.

Substance: fibroblast growth factor 2 [FGF2]
- growth rates of the co-spheroids after FGF2 induction ([1]; in CS-based hydrogel): not promoted
- growth of co-spheroids after introduction of FGF2 ([1]; in gelatin-based hydrogel, from 6 days after encapsulation): lightly enhanced
- expression of KDR, VEGF, ITGb1, VE-cadherin upon addition of FGF2 [2]: did not seem to be apparently affected
